# Measured values as given in patent US20070128217A1 (priority 2003, published 2007).
# Experiments:
# [1] = test system: recombinant human anti-SARS-CoV antibody 03-018; format: binding; parameters: Binding of antibody 03-018 to linear peptides of the N protein of SARS-CoV Urbani / Binding of antibody 03-018 to looped/cyclic peptides of the N protein of SARS-CoV Urbani: unit not given here
# [2] = test system: control sera (pooled serum of ten healthy LUMC hospital workers; commercial negative donor pooled serum from the Dutch bloodbank); format: binding, human; parameters: Binding of Control serum LUMC to linear peptides / Binding of Control serum Blood-bank to linear peptides / Binding of Control serum LUMC to looped peptides / Binding of Control Serum Blood-Bank to Looped peptides / Binding of Control serum LUMC to linear peptides of the protein M of SARS-CoV Urbani / Binding of Control serum Blood-bank to linear peptides of the protein M of SARS-CoV Urbani / Binding of Control serum LUMC to looped peptides of the protein M of SARS-CoV Urbani / Binding of Control Serum Blood-Bank to Looped peptides of the protein M of SARS-CoV Urbani: unit not given here
# [3] = test system: antibodies in sera from SARS patients (sera 1a, 1b, 2, 6, 37, 62, London, SARS-yellow, SARS-green); format: binding, human; parameters: Binding of serum 6 to linear peptides of protein X1 of SARS-CoV Urbani / Binding of serum 37 to linear peptides of protein X1 of SARS-CoV Urbani / Binding of serum 6 to looped/cyclic peptide (PEPSCAN-ELISA) / Binding of serum 37 to looped/cyclic peptide (PEPSCAN-ELISA) / Binding of serum 37 to looped/cyclic peptides of protein X1 of SARS-CoV Urbani / Binding of serum 6 to linear peptides of protein X2 / Binding of serum 37 to linear peptides of protein X2 / Binding of serum 37 to looped/cyclic peptides of protein X2 of SARS-CoV Urbani / Binding of serum 6 to linear peptides of protein M of SARS-CoV Urbani / Binding of serum 37 to linear peptides of protein M of SARS-CoV Urbani / Binding of serum 6 to looped/cyclic peptides of protein M of SARS-CoV Urbani / Binding of serum 37 to looped/cyclic peptides of protein M of SARS-CoV Urbani / Binding of serum 6 to linear peptides of protein X3 of SARS-CoV Urbani / Binding of serum 37 to linear peptides of protein X3 of SARS-CoV Urbani / Binding of serum 37 to looped/cyclic peptides of protein X3 of SARS-CoV Urbani / Binding of serum 6 to linear peptides of protein X4 of SARS-CoV Urbani / Binding of serum 37 to linear peptides of protein X4 of SARS-CoV Urbani / Binding of serum 37 to looped/cyclic peptides of protein X4 of SARS-CoV Urbani / Binding of serum 6 to linear peptides of protein X5 of SARS-CoV Urbani / Binding of serum 37 to linear peptides of protein X5 of SARS-CoV Urbani / Binding of serum 37 to looped/cyclic peptides of protein X5 of SARS-CoV Urbani / Binding of serum 6 to linear peptides of protein N of SARS-CoV Urbani / Binding of serum 37 to linear peptides of protein N of SARS-CoV Urbani / Binding of serum 6 to linear peptide (PEPSCAN-ELISA) / Binding of serum 1a to looped/cyclic peptides of protein N of SARS-CoV Urbani / Binding of serum 1b to looped/cyclic peptides of protein N of SARS-CoV Urbani / Binding of serum 2 to looped/cyclic peptides of protein N of SARS-CoV Urbani / Binding of serum 6 to looped/cyclic peptides of protein N of SARS-CoV Urbani / Binding of serum 37 to looped/cyclic peptides of protein N of SARS-CoV Urbani / Binding of serum 62 to looped/cyclic peptides of protein N of SARS-CoV Urbani / Binding of serum London to looped/cyclic peptides of protein N of SARS-CoV Urbani / Binding of serum SARS-green to looped/cyclic peptides of protein N of SARS-CoV Urbani: unit not given here
# [4] = test system: rabbit serum obtained by immunizing a rabbit with the SARS-CoV strain Frankfurt 1; format: binding; parameters: Binding of a rabbit serum to linear peptides / Binding of a rabbit serum to looped peptides / Rabbit serum linear peptides / Rabbit serum looped peptides / Binding of a rabbit serum to linear peptides of protein N of SARS-CoV Urbani (Rabbit serum linear peptides) / Binding of a rabbit serum to looped/cyclic peptides of protein N of SARS-CoV Urbani (Rabbit serum looped peptides): unit not given here
Sequence,Binding of antibody 03-018 to linear peptides of the N protein of SARS-CoV Urbani [1],Binding of antibody 03-018 to looped/cyclic peptides of the N protein of SARS-CoV Urbani [1],Binding of serum 1a to linear peptides of protein N of SARS-CoV Urbani [3],Binding of serum 1a to looped/cyclic peptides of protein N of SARS-CoV Urbani [3],Binding of serum 1b to linear peptides of protein N of SARS-CoV Urbani [3],Binding of serum 1b to looped/cyclic peptides of protein N of SARS-CoV Urbani [3],Binding of serum 2 to linear peptides of protein N of SARS-CoV Urbani [3],Binding of serum 2 to looped/cyclic peptides of protein N of SARS-CoV Urbani [3],Binding of serum 6 to linear peptides of protein N of SARS-CoV Urbani [3],Binding of serum 6 to looped/cyclic peptides of protein N of SARS-CoV Urbani [3],Binding of serum 37 to linear peptides of protein N of SARS-CoV Urbani [3],Binding of serum 37 to looped/cyclic peptides of protein N of SARS-CoV Urbani [3],Binding of serum 62 to linear peptides of protein N of SARS-CoV Urbani [3],Binding of serum 62 to looped/cyclic peptides of protein N of SARS-CoV Urbani [3],Binding of serum London to linear peptides of protein N of SARS-CoV Urbani [3],Binding of serum London to looped/cyclic peptides of protein N of SARS-CoV Urbani [3],Binding of serum SARS-green to linear peptides of protein N of SARS-CoV Urbani [3],Binding of serum SARS-green to looped/cyclic peptides of protein N of SARS-CoV Urbani [3],Binding of serum SARS-yellow to linear peptides of protein N of SARS-CoV Urbani [3],Binding of serum SARS-yellow to looped/cyclic peptides of protein N of SARS-CoV Urbani [3],other results
WFTALTQHGKEELRF,0.1,0.2,0.3,0.4,0.2,0.2,0.3,0.4,0.2,0.2,1.2,0.8,0.9,0.6,0.7,0.4,0.4,0.5,0.5,0.4,Binding of Control Serum Blood-Bank to Looped peptides [2]: 0.6; Binding of Control serum Blood-bank to linear peptides [2]: 0.8; Binding of Control serum LUMC to linear peptides [2]: 0.7; Binding of Control serum LUMC to looped peptides [2]: 0.5; Binding of a rabbit serum to linear peptides of protein N of SARS-CoV Urbani (Rabbit serum linear peptides) [4]: 0.1; Binding of a rabbit serum to looped/cyclic peptides of protein N of SARS-CoV Urbani (Rabbit serum looped peptides) [4]: 0.3
WLTYHGAIKLDDKDP,0.1,0.2,0.3,0.2,0.2,0.1,0.2,0.2,0.2,0.1,0.7,0.4,0.8,0.3,0.6,0.3,0.3,0.0,0.7,0.2,Control Serum Blood-Bank Looped peptides [2]: 0.4; Control serum Blood-bank linear peptides [2]: 0.8; Control serum LUMC linear peptides [2]: 0.7; Control serum LUMC looped peptides [2]: 0.4; Binding of a rabbit serum to linear peptides of protein N of SARS-CoV Urbani (Rabbit serum linear peptides) [4]: 0.2; Binding of a rabbit serum to looped/cyclic peptides of protein N of SARS-CoV Urbani (Rabbit serum looped peptides) [4]: 0.2
WPQIAQFAPSASAFF,0.1,0.3,0.2,0.5,0.1,0.3,0.1,0.5,0.2,0.3,0.6,0.8,0.5,0.9,0.5,0.5,0.3,0.5,0.7,0.6,Control Serum Blood-Bank Looped peptides [2]: 0.8; Control serum Blood-bank linear peptides [2]: 0.6; Control serum LUMC linear peptides [2]: 0.6; Control serum LUMC looped peptides [2]: 0.9; Binding of a rabbit serum to linear peptides of protein N of SARS-CoV Urbani (Rabbit serum linear peptides) [4]: 0.1; Binding of a rabbit serum to looped/cyclic peptides of protein N of SARS-CoV Urbani (Rabbit serum looped peptides) [4]: 0.6
WVATEGALNTPKDHI,0.1,0.2,0.2,0.3,0.1,0.2,0.3,0.3,0.2,0.2,0.7,0.5,0.9,0.4,0.6,0.4,0.6,0.4,0.6,0.2,Binding of Control Serum Blood-Bank to Looped peptides [2]: 0.5; Binding of Control serum Blood-bank to linear peptides [2]: 0.8; Binding of Control serum LUMC to linear peptides [2]: 0.9; Binding of Control serum LUMC to looped peptides [2]: 0.5; Binding of a rabbit serum to linear peptides of protein N of SARS-CoV Urbani (Rabbit serum linear peptides) [4]: 0.1; Binding of a rabbit serum to looped/cyclic peptides of protein N of SARS-CoV Urbani (Rabbit serum looped peptides) [4]: 0.2
